According to patent publication US20100184770A1, “COMPOUNDS” (Glaxo Group Limited, priority 2006, published 2010):

Tests used:
[1] = target: T1, human H1 receptor (Homo sapiens, UniProt P35367); assay: Histamine H1 functional antagonist assay: determination of antagonist pA2 (FLIPR); type: cell-based
T1 construct: expressed in transfected cells
Procedure: (§1) 1. Generation of Histamine H1 Cell Line The human H1 receptor is cloned using known procedures described in the literature [Biochem. Biophys. Res. Commun., 201(2):894 (1994)]. Chinese hamster ovary (CHO) cells stably expressing the human H1 receptor are generated according to known procedures described in the literature [Br. J. Pharmacol., 117(6):1071 (1996)].
The histamine H1 receptor expressing CHO cells are seeded into non-coated black-walled clear bottom 96-well tissue culture plates as described above. […]
The plates are then placed into a FLIPR™ (Molecular Devices, UK) to monitor cell fluorescence (λex=488 nm, λEM=540 nm) in the manner described in Sullivan et al., (In: Lambert D G (ed.), Calcium Signaling Protocols, New Jersey: Humana Press, 1999, 125-136) before and after the addition of 50 μl histamine over a concentration range of 1 mM 0.1 nM. […] The antagonist pA2 is calculated using the following standard equation: pA2=log(DR-1)−log [B] where DR=dose ratio, defined as EC50 antagonist-treated/EC50 control and [B]=concentration of antagonist.

[2] = target: T1, human H1 receptor; assay: Histamine H1 functional antagonist assay: determination of antagonist duration (washout, FLIPR); type: cell-based; details: at one or more time points after washout
Procedure: as §1
To determine the antagonist duration, cells are cultured overnight in non-coated black-walled clear bottom 96-well tissue culture plates, are washed with PBS and are incubated with a concentration of antagonist chosen to give an approximate DR in the range 30-300. Following the 30 min antagonist incubation period, the cells are washed two or three times with 200 μl of PBS and then 100 μl Tyrodes buffer is added to each well to initiate antagonist dissociation. Following incubation for predetermined times, typically 30-270 min at 37° C., the cells are then washed again with 200 μl PBS and are incubated with 100 Tyrodes buffer containing Brilliant Black, probenecid and Fluo-4 for 45 min at 37° C., as described above. After this period, the cells are challenged with histamine in the FLIPR™ as described above. The dose ratio at each time point is used to determine the fractional H1 receptor occupancy by the following equation: fractional receptor occupancy=(DR-1)/DR. The decrease in receptor occupancy over time approximates to a straight line and is analysed by linear regression. The slope of this straight line fit is used as an index of the dissociation rate of the antagonist. The dose ratios for antagonist treated cells and for antagonist treated and washed cells at each time point are used to calculate a relative dose ratio (rel DR) which is also used as an index of antagonist duration. Antagonists with long duration of action produce rel DR values close to 1, and antagonists with short duration of action produce rel DR values that approaches the dose ratio value obtained for antagonist treatment alone.

T1 sequence (P35367 whole entry): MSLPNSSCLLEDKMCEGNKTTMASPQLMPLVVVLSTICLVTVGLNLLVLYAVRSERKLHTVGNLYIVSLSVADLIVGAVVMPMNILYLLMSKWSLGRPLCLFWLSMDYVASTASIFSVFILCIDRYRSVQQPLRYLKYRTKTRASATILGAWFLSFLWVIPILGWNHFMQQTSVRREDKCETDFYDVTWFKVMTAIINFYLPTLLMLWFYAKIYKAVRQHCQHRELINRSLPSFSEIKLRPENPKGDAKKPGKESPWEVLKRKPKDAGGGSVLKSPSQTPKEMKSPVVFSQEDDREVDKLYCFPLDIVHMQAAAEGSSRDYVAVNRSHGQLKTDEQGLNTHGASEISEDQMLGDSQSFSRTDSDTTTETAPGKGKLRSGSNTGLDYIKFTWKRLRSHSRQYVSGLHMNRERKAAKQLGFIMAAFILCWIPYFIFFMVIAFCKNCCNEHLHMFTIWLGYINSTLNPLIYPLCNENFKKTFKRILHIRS

Row | SMILES | Kb [1] | duration of action compared with azelastine in the histamine H1 functional antagonist assay [2]
1 | COCCC(=O)NCCN1CCC[C@@H]1Cn1nc(Cc2ccc(Cl)cc2)c2ccccc2c1=O.O=CO [Example 35, N-[2-((2R)-2-{[4-[(4-Chlorophenyl)methyl]-1-oxo-2(1H)-phthalazinyl]methyl}-1-pyrrolidinyl)ethyl]-3-(methyloxy)propanamide, formate salt] | < 10 nM | longer duration of action than azelastine
2 | Cl.O=C(CC(F)(F)F)NCCN1CCC[C@@H]1Cn1nc(Cc2ccc(Cl)cc2)c2ccccc2c1=O [Example 36a, N-[2-((2R)-2-{[4-[(4-Chlorophenyl)methyl]-1-oxo-2(1H)-phthalazinyl]methyl}-1-pyrrolidinyl)ethyl]-3,3,3-trifluoropropanamide, hydrochloride] | < 10 nM | longer duration of action than azelastine
